Entries after “also recorded” stand apart in the source; their conditions may differ.
Columns and labels:
[1] = tested on: Relapsing Remitting Multiple Sclerosis (RRMS); details: human trials reported in the literature; cited from earlier work
[2] = tested on: Chronic Progressive forms of MS; details: human trials reported in the literature; cited from earlier work
[3] = tested on: clinically definite MS patient in the Secondary Progressive stage of MS (SPMS); test: Scoping experiment in therapy with daily AdoCbl injections in one MS patient; assay type: in vivo, human
Source text: The current patent, by Boucher, teaches the effective use of AdoCbl, by itself, for therapy of MS and other neurological inflammatory diseases and neurodegenerative diseases. […] Approximately 10 years ago the MS Patient was deemed to be in the Secondary Progressive Multiple Sclerosis (SPMS) stage due to the unremitting accumulation of disability. The MS Patient had loss of memory, cognitive impairment, loss of balance, fatigue, nocturia, not able to lift right foot from the floor, not able to raise right hand, not able to write with the right hand or to use a computer keyboard with the right hand, not able to grip with the right hand, not able to eat with a fork in the right hand, had poor heat tolerance, and was marginally ambulatory with a rollator. The MS patient was more affected on the right side than on the left, which prevented the use of a manual wheelchair. A scoping experiment in therapy with daily injections of 1000 mcg of AdoCbl was initiated. […] After three days, the injection size was increased to 5000 mcg of AdoCbl daily. The MS Patient had been making daily injections of 20 mg Copaxone, but these were stopped for about two months when the scoping experiment with daily injections of AdoCbl was initiated. […] The current patent, by Boucher, teaches that AdoCbl, by itself, provides effective therapy of MS and other inflammatory diseases, that AdoCbl facilitates remyelination, that AdoCbl stops secondary progression of disability in MS and allows extensive recovery from the symptoms of MS. The scoping experiment in therapy with AdoCbl was intended as a test of the etiological hypothesis that the enzyme ATP: Cob (I) alamin adenosyltransferase (ATR) in the CSF was a target of the immune system, which was a major factor in the development of MS. The results of the scoping experiment in therapy strongly support the proposed etiological hypothesis. There are missing details, potentially. Therefore, this patent is not to be restricted to addressing the proposed etiological hypothesis, as other etiological processes are possible.
Prior art in the patent literature and in the published medical literature for therapy of MS has no example of therapy that stops and reverses the progressive accumulation of disability.
A scoping experiment in therapy by parenteral injection of at a dose of between 1 μg and 2.5 g daily AdoCbl into a human subject with clinically definite MS in the secondary progressive stage was conducted.

Compound | effect on rate of relapse [1] | benefit in chronic progressive MS [2] | ambulation ([3]; 5000 mcg of AdoCbl daily, patient was marginally ambulatory with a rollator before) | effect on progression / accumulation of disability in MS ([3]; AdoCbl by itself, single SPMS patient, 98% pure AdoCbl, for more than one year) | ability to raise right hand ([3]; daily injections of 1000 mcg of AdoCbl, after three days, single SPMS patient) | recovery of lost abilities and MS symptoms ([3]; injection size increased to 5000 mcg of AdoCbl daily after three days, Copaxone stopped for about two months, single SPMS patient) | recovery of abilities and symptoms (summary statement) ([3]; parenteral injection, dose of between 1 μg and 2.5 g daily AdoCbl, human subject, secondary progressive MS) | need for continued AdoCbl injections ([3]; single SPMS patient)
Copolymer-1 | effective in lowering the rate of relapse | no effective benefit | – | – | – | – | – | –
C/C1=C2/[N-]C([C@H](CC(N)=O)[C@@]2(C)CCC(=O)NC[C@@H](C)OP(=O)([O-])O[C@H]2[C@@H](O)[C@@H](n3cnc4cc(C)c(C)cc43)O[C@@H]2CO)[C@]2(C)N=C(/C(C)=C3N=C(/C=C4N=C1[C@@H](CCC(N)=O)C\4(C)C)[C@@H](CCC(N)=O)[C@]\3(C)CC(N)=O)[C@@H](CCC(N)=O)[C@]2(C)CC(N)=O.[CH2-][C@H]1O[C@@H](n2cnc3c(N)ncnc32)[C@@H](O)[C@@H]1O.[Co+3] [AdoCbl, (5′-deoxy-5′-adenosyl) cobamide] | – | – | ambulatory and does not need a wheelchair | dramatic therapeutic effect; also recorded: stops the accumulation of disability and substantially reverses disability; also recorded: stopped and reversed chronic progression of MS; also recorded: effectiveness in stopping and even reversing the progressive accumulation of neurological damage | able to raise their right hand above their head | has recovered memory, cognition, normal balance, does not experience fatigue, no longer has nocturia, has recovered some ability with the right leg, is able to write with the right hand, use a computer keyboard with that right hand, and eat with a fork in the right hand | regained physical abilities lost years before, regained memory and cognitive abilities, and had complete recovery from many common symptoms of MS such as fatigue and poor balance | necessary to prevent relapse to the common symptoms of MS

Reference: patent US8691790B2, “Therapy of neurological inflammatory diseases with (5'-deoxy-5'-adenosyl) cobamamide, recombinant human growth hormone, interleukins IL-1, IL-6, IL-11, epidermal growth factor, and physiotherapy” (priority 2009, dated 2014)
